Patent US20100010078A1, “METHODS OF TREATING ANDROGEN DEPENDENT PROSTATE CANCER BY ADMINISTERING AN ACTIVE PHARMACEUTICAL INGREDIENT BEING FISETIN, 3,3',4',7-TETRAHYDROXYFLAVONE OR A DERIVATIVE THEREOF, IN AN ORAL, TRANSDERMAL OR TOPICAL DOSAGE FORM” (priority 2008, published 2010)
Peptide text beside a SMILES is read from it. * marks the point of attachment. Cbz = O=C(OCc1ccccc1)*; CH2F = FC*

How the values were obtained:
caspase-3, -8 and -9 = assay: Western blot, active caspase-3, -8 and -9 in LNCaP cells; type: cell-based, human; settings: Z-VAD-FMK 40 μM for 2 h before fisetin (10-60 μM), compared to fisetin treatment
Procedure: Protein extraction and western blotting. Following the treatment of LNCaP cells with fisetin (10-60 μM; 48 h), the media was aspirated, the cells were washed with cold PBS (pH 7.4), and ice-cold lysis buffer (50 mM Tris-HCl, 150 mM NaCl, 1 mM EGTA, 1 mM EDTA, 20 mM NaF, 100 mM Na3VO4, 0.5% NP-40, 1% Triton X-100, 1 mM PMSF (pH 7.4)) with freshly added protease inhibitor cocktail (Protease Inhibitor Cocktail Set III, Calbiochem, La Jolla, Calif.) over ice for 30 min. The cells were scraped and the lysate was collected in a microfuge tube and passed through a needle to break up the cell aggregates. […]
For western blotting, 30-50 μg protein was resolved over 8-12% polyacrylamide gels and transferred to a nitrocellulose membrane. The blot was blocked in blocking buffer (5% nonfat dry milk/1% Tween 20; in 20 mM TBS, pH 7.6) for 1 hr at room temperature, incubated with appropriate monoclonal or polyclonal primary antibody in blocking buffer for 1.5 h to overnight at 4° C., followed by incubation with anti-mouse or anti-rabbit secondary antibody horseradish peroxidase conjugate obtained from Amersham Life Science Inc. and detected by chemiluminescence and autoradiography using XAR-5 film obtained from Eastman Kodak Co. (Rochester, N.Y., USA). […]

caspase-3 and -7 = assay: Immunofluorescence staining for active caspase-3 and -7; type: cell-based, human; settings: LNCaP, Z-VAD-FMK 40 μM for 2 h before fisetin 40 μM
Procedure: Immunofluorescence staining for active caspase-3 and -7. LNCaP cells were incubated with 40 μM concentration of the general caspase inhibitor Z-VAD-FMK for 2 h, followed by the addition of fisetin (40 μM; 48 h) and then harvested. ICT's Magic Red™ substrate-based MR-Caspase assay kit was used for the immunofluorescence staining for caspase-3 and -7. This kit utilizes the fluorophore, cresyl violet. As the 4 amino acid sequence, aspartylglutamylalanylaspartic acid (DEVD) is the optimal sequence for caspase -3 as well as -7, it was coupled to cresyl violet to create the caspase 3/7 substrate, MR-(DEVD)2. […] Following enzymatic hydrolysis at one or both of the aspartic acid amide linkage sites, the mono and non-substituted cresyl violet fluorophores fluoresce red and fluorescence photographs were obtained at 510-560 nm excitation and 610 nm emission.

In the case of `COC(=O)C[C@H](NC(=O)[C@H](C)NC(=O)[C@@H](NC(=O)OCc1ccccc1)C(C)C)C(=O)CF` [Z-VAD-FMK, reference compound] (Cbz-Val-Ala-Asp(OMe)-CH2F), the “protein expression of active caspase-3, -8 and -9” value (caspase-3, -8 and -9) is reported as “significant decrease” and the “immunofluorescence staining of active caspase-3 & -7” value (caspase-3 and -7) is reported as “significant decrease”.
